According to patent publication US8901138B2, “Sulfoximine substituted quinazolines for pharmaceutical compositions” (Boehringer Ingelheim International GmbH, priority 2012, dated 2014):

Biological target: MNK1a (Homo sapiens, UniProt Q9BUB5)
Experiment: MNK1 in vitro kinase assay (assay 2), Z'-LYTE
Format: biochemical
Conditions: compound concentration of 1 μM
Text: B. MNK1 In Vitro Kinase Assay (Assay 2)
MNK1 Data can be obtained from the MNK1 Z′-LYTE® assay. The MNK1 Z′-LYTE® screening protocol and assay conditions are also described on www.invitrogen.com.
The assay is described as follows:
The Z′-LYTE® biochemical assay employs a fluorescence-based, coupled-enzyme format and is based on the differential sensitivity of phosphorylated and non-phosphorylated peptides to proteolytic cleavage. The peptide substrate is labeled with two fluorophores—one at each end—that make up a FRET pair.
In the primary reaction, the kinase transfers the gamma-phosphate of ATP to a single tyrosine, serine or threonine residue in a synthetic FRET-peptide. In the secondary reaction, a site-specific protease recognizes and cleaves non-phosphorylated FRET-peptides. Phosphorylation of FRET-peptides suppresses cleavage by the Development Reagent. Cleavage disrupts FRET between the donor (i.e., coumarin) and acceptor (i.e., fluorescein) fluorophores on the FRET-peptide, whereas uncleaved, phosphorylated FRET-peptides maintain FRET. A ratiometric method, which calculates the ratio (the Emission Ratio) of donor emission to acceptor emission after excitation of the donor fluorophore at 400 nm, is used to quantitate reaction progress, as shown in the equation below. Emission Ratio=Coumarin Emission(445 nm)/Fluorescein Emission(520 nm)
ASSAY SETUP: The inhibition of kinase activity of MNK1a was assessed using pre-activated GST-MNK1a. The 2×MKNK1 (MNK1) mixture is prepared in 50 mM HEPES pH 7.5, 0.01% BRIJ-35, 10 mM MgCl2, 4 mM MnCl2, 1 mM EGTA, 2 mM DTT. The final 10 μL Kinase Reaction consists of 13.5-54 ng MKNK1 (MNK1) and 2 μM Ser/Thr 07 in 50 mM HEPES pH 7.5, 0.01% BRIJ-35, 10 mM MgCl2, 2 mM MnCl2, 1 mM EGTA, 1 mM DTT. After the 1 hour Kinase Reaction incubation, 5 μL of a 1:32768 dilution of Development Reagent A is added.
The Test Compounds are screened in 1% DMSO (final) in the well.
All Peptide/Kinase Mixtures are diluted to a 2× working concentration in the MNK1 Kinase Buffer.
All ATP Solutions are diluted to a 4× working concentration in Kinase Buffer (50 mM HEPES pH 7.5, 0.01% BRIJ-35, 10 mM MgCl2, 1 mM EGTA).
Development Reagent Solution:
The Development Reagent is diluted in Development Buffer
Bar-coded Corning, low volume NBS, 384-well plate (Corning Cat. #3676)
1. 2.5 μL-4× Test Compound
2. 5 μL-2× Peptide/Kinase Mixture
5. 60-minute Kinase Reaction incubation at room temperature
6. 5 μL-Development Reagent Solution
8. 60-minute Development Reaction incubation at room temperature
9. Read on fluorescence plate reader and analyze the data
The following equations are used for each set of data points: […]
Correction for Background Fluorescence: FSample−FITCFl Ctl
Emission Ratio (using values corrected for background fluorescence):Coumarin
Emission (445 nm)/Fluorescein Emission (520 nm)
% Phosphorylation (% Phos): 1−((Emission Ratio×F100%)−C100%)/((C0%−C100%)+[Emission Ratio×(F100%−F0%)])*100 % Inhibition: 1−(% PhosSample/% Phos0% Inhibition Ctl)*100 FI=Fluorescence Intensity C100%=Average Coumarin emission signal of the 100% Phos. Control C0%=Average Coumarin emission signal of the 0% Phos. Control F100%=Average Fluorescein emission signal of the 100% Phos. Control F0%=Average Fluorescein emission signal of the 0% Phos. Control Graphing Software
SelectScreen® Kinase Profiling Service uses XLfit from IDBS. The dose response curve is curve fit to model number 205 (sigmoidal dose-response model).

MNK1a, sequence (Q9BUB5 1-424 isoform Q9BUB5-2): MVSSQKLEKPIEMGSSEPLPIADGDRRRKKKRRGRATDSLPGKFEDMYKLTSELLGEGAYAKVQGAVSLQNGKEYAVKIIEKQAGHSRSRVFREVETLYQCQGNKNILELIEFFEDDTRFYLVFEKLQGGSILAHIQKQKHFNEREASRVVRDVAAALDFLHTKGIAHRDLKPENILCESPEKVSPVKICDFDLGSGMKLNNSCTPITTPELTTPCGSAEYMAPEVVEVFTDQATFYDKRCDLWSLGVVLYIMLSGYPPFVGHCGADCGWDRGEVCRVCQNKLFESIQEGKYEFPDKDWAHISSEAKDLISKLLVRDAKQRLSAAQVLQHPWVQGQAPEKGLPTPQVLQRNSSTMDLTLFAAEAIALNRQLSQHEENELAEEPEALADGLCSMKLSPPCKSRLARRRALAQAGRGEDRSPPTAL

Structure (SMILES)	inhibition at 1 µM [%]
Cc1cc(N=S(C)(=O)C2CC2)cc2ncnc(Nc3ccc(F)cc3O[C@@H]3CO[C@@H]4CCO[C@@H]43)c12 (stereo partly drawn) [Example 2.114]	96
Cc1cc(N=S(C)(C)=O)cc2ncnc(Nc3ccc(F)cc3O[C@H]3CCOC3)c12 [Example 2.47]	97
Cc1cc(N=S(C)(C)=O)cc2ncnc(Nc3ccc(F)cc3O[C@@H]3CO[C@H]4[C@@H]3OC[C@H]4C#N)c12 [Example 2.30]	88
CO[C@H]1CC[C@H](Oc2ncccc2Nc2ncnc3cc(N=S(C)(C)=O)cc(F)c23)CC1 [Example 2.49]	86
Cc1cc(N=S(C)(=O)C(C)(C)C)cc2ncnc(Nc3ccc(F)cc3O[C@@H]3CO[C@@H]4CCO[C@@H]43)c12 (stereo partly drawn) [Example 2.108]	99
Cc1cc(N=S(C)(C)=O)cc2ncnc(Nc3ccc(F)cc3OC3(C(F)(F)F)CCC3)c12 [Example 1.30]	89
Cc1cc(N=S2(=O)CCCC2)cc2ncnc(Nc3ccc(F)cc3O[C@@H]3CCN(C(=O)OC(C)(C)C)C3)c12 [Example 2.59]	82
Cc1cc(N=S2(=O)CCC(O)CC2)cc2ncnc(Nc3ccc(F)cc3O[C@H]3CCOC3)c12 (stereo partly drawn) [Example 2.97]	93
Cc1cc(N=S2(=O)CCCC2)cc2ncnc(Nc3ccc(F)cc3O[C@@H]3CO[C@H]4[C@@H]3OC[C@@H]4F)c12 [Example 2.117]	101
Cc1cc(N=S(C)(C)=O)cc2ncnc(Nc3ccc(C(N)=O)cc3OC3CCOCC3)c12 [Example 2.16]	94
Cc1cc(N=S2(=O)CCCC2)cc2ncnc(Nc3ccc(F)cc3O[C@@H]3CCCN(C(=O)OC(C)(C)C)C3)c12 [Example 2.66]	88

Continued, values first:

inhibition at 1 µM [%]	Structure (SMILES)
90	CS(C)(=O)=Nc1cc(F)c2c(Nc3ccc(F)cc3O[C@@H]3CCN(CC(F)F)C3)ncnc2c1 [Example 6.16]
98	CCS(C)(=O)=Nc1cc(C)c2c(Nc3ccc(F)cc3OC3CCOC3)ncnc2c1 (single isomer, unassigned) [Example 7.13]
80	CS(C)(=O)=Nc1cc(F)c2c(Nc3ccc(F)cc3O[C@@H]3CCCN(CC(F)(F)F)C3)ncnc2c1 [Example 6.13]
89	Cc1cc(N=S(C)(C)=O)cc2ncnc(Nc3ccc(F)cc3O[C@@H]3CCCNC3)c12 [Example 3.9]

Biological target: T1, MNK2a (Homo sapiens, UniProt Q9HBH9)
T1 construct: made in house
T1 sequence (Q9HBH9 whole entry): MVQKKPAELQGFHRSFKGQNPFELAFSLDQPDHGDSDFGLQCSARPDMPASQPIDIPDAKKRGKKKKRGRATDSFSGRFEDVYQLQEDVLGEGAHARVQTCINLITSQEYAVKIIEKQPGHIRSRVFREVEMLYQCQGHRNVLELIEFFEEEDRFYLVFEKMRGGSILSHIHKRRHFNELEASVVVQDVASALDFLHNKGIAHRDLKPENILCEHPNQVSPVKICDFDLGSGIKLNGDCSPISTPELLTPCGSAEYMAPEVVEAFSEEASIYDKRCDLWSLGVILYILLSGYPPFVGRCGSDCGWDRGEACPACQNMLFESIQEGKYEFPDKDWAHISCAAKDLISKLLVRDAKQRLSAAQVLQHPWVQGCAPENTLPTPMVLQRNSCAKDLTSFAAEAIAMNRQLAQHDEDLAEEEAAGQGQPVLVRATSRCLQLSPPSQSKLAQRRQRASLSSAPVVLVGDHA
Experiment: MNK2a in vitro kinase assay (assay 1), ADP-Glo
Format: biochemical
Conditions: preactivated GST-MNK2a, 20 μM ATP, read-out: MNK2 IC50
Description: A. MNK2a In Vitro Kinase Assay (Assay 1)
ASSAY SETUP: The inhibition of kinase activity of MNK2a was assessed using preactivated GST-MNK2a. The white, 384-well OptiPlate F plates were purchased from Perkin Elmer. The ADP-Glo Kinase Assay (including ultra pure ATP) was purchased from Promega (V9103). Activated MNK2a was obtained as described in WO2011/104340. The unlabeled eIF4E peptide (NH2-[…]—CONH2) (SEQ ID NO: 1), differing from Seq. ID No. 5 of WO 2011/104340 by the C-terminal —CONH2 group, was purchased from Thermo Fisher Scientific. All other materials were of highest grade commercially available. Compounds are tested in either serial dilutions or single dose concentrations. The compound stock solutions are 10 mM in 100% DMSO The serial compound dilutions are prepared in 100% DMSO followed by 1:27.3 intermediate dilution in assay buffer. The final DMSO concentration in assay will be <3%. In the 384-well plates 3 μl of test compound from the intermediate dilution is mixed with 4 μl of the activated MNK2 enzyme (final concentration of 10 nM) and 4 μl of the peptide (final concentration of 25 μM)/ultra pure ATP (final concentration of 20 μM), all dissolved in assay buffer. This step is followed by an incubation time of 90 min, then 10 μl of ADP Glo reagent are added, followed by 40 min of incubation. Then 20 μl of kinase detection reagent are admixed. The plates are sealed and after an incubation period of 30 min, the luminescence signal is measured in an Envision reader to determine the amount of produced ADP. All incubation steps are performed at room temperature. The assay buffer consists of 20 mM HEPES, 2 mM DTT, 0.01% BSA, 20 mM MgCl2 and 0.1% Pluronic F-127.
Each assay microtiter plate contains wells with vehicle controls instead of compound (1% DMSO in water) as reference for the high signal (100% CTL, high signal), and wells containing a potent MNK2 inhibitor (final 20 μM, 1% DMSO) as reference for low signal (0% CTL, low signal).
The luminescent signal generated is proportional to the ADP concentration produced and is correlated with activated MNK2 activity. The analysis of the data is performed by the calculation of the percentage of ATP consumption of activated MNK2 in the presence of the test compound compared to the consumption of ATP in the presence of activated MNK2 without compound. (RLU(sample)−RLU(low control))*100/(RLU(high value)−RLU(low control)) [RLU=relative luminescence units]
An inhibitor of the MNK2 enzyme will give values between 100% CTL (no inhibition) and 0% CTL (complete inhibition). Values of more than 100% CTL are normally related to compound/sample specific physico-chemical properties (e.g. solubility, light absorbance, fluorescence).
IC50 values based on dose response curves are calculated with the AssayExplorer software.

Structure (SMILES)	IC50 [nM]
Cc1cc(N=S(C)(=O)C2CC2)cc2ncnc(Nc3ccc(F)cc3O[C@@H]3CO[C@@H]4CCO[C@@H]43)c12 (stereo partly drawn) [Example 2.114]	2
Cc1cc(N=S(C)(C)=O)cc2ncnc(Nc3ccc(F)cc3O[C@H]3CCOC3)c12 [Example 2.47]	2
Cc1cc(N=S(C)(C)=O)cc2ncnc(Nc3ccc(F)cc3O[C@@H]3CO[C@H]4[C@@H]3OC[C@H]4C#N)c12 [Example 2.30]	7
CO[C@H]1CC[C@H](Oc2ncccc2Nc2ncnc3cc(N=S(C)(C)=O)cc(F)c23)CC1 [Example 2.49]	4
Cc1cc(N=S(C)(=O)C(C)(C)C)cc2ncnc(Nc3ccc(F)cc3O[C@@H]3CO[C@@H]4CCO[C@@H]43)c12 (stereo partly drawn) [Example 2.108]	3
Cc1cc(N=S(C)(C)=O)cc2ncnc(Nc3ccc(F)cc3OC3(C(F)(F)F)CCC3)c12 [Example 1.30]	2
Cc1cc(N=S2(=O)CCCC2)cc2ncnc(Nc3ccc(F)cc3O[C@@H]3CCN(C(=O)OC(C)(C)C)C3)c12 [Example 2.59]	15
Cc1cc(N=S2(=O)CCC(O)CC2)cc2ncnc(Nc3ccc(F)cc3O[C@H]3CCOC3)c12 (stereo partly drawn) [Example 2.97]	2
Cc1cc(N=S2(=O)CCCC2)cc2ncnc(Nc3ccc(F)cc3O[C@@H]3CO[C@H]4[C@@H]3OC[C@@H]4F)c12 [Example 2.117]	1
Cc1cc(N=S(C)(C)=O)cc2ncnc(Nc3ccc(C(N)=O)cc3OC3CCOCC3)c12 [Example 2.16]	10
Cc1cc(N=S2(=O)CCCC2)cc2ncnc(Nc3ccc(F)cc3O[C@@H]3CCCN(C(=O)OC(C)(C)C)C3)c12 [Example 2.66]	16

Second part, the molecule after the results:

IC50 [nM]	Structure (SMILES)
7	CS(C)(=O)=Nc1cc(F)c2c(Nc3ccc(F)cc3O[C@@H]3CCN(CC(F)F)C3)ncnc2c1 [Example 6.16]
2	CCS(C)(=O)=Nc1cc(C)c2c(Nc3ccc(F)cc3OC3CCOC3)ncnc2c1 (single isomer, unassigned) [Example 7.13]
4	CS(C)(=O)=Nc1cc(F)c2c(Nc3ccc(F)cc3O[C@@H]3CCCN(CC(F)(F)F)C3)ncnc2c1 [Example 6.13]
10	Cc1cc(N=S(C)(C)=O)cc2ncnc(Nc3ccc(F)cc3O[C@@H]3CCCNC3)c12 [Example 3.9]
